Laboratory results: EP0897904B1, “Fungicidal 2-methoxybenzophenones” (BASF AKTIENGESELLSCHAFT, priority 1997, dated 1999)
Read-outs that look alike come from different tables or passages of the source.

Assays:
[1] = system: Blumeria (Erysiphe) graminis DC. f.sp. tritici E. Marchal; assay: Zero day protectant test, Wheat Powdery Mildew (WPM); assay type: in vivo; settings: wheat variety Kanzler, 0 day protectant test, side-by-side, technical material in 0.5% acetone 0.05% Tween 20 water
From the text: • (a) Wheat Powdery Mildew (WPM): HOST: Wheat (Triticum aestivum L.) variety Kanzler PATHOGEN: Blumeria (Erysiphe) graminis DC. f.sp. tritici E. Marchal • (b) Barley Powdery Mildew (BPM): HOST: Barley (Hordeum vulgare L.) variety Golden Promise PATHOGEN: Blumeria (Erysiphe) graminis DC. f.sp. hordei E. Marchal
This test is a zero day protectant test for control of wheat and barley powdery mildews. • 1. Wheat or barley seed (approximately 8-10/pot) is planted in 6 cm diameter plastic pots and maintained in the greenhouse. • 2. When the primary leaf is fully expanded, formulated test compounds are sprayed with a single nozzle overhead track sprayer at a rate of 200 l/ha. Plants are then allowed to air-dry. • 3. Inoculation follows about three hours after compound application. Plants are set up on greenhouse benches with bottom watering mats and inoculated by dusting them with conidia from powdery mildew infected plants (stock cultures at an age of 10-14 days). • 4. Disease on the primary leaf as percent leaf area with disease symptoms/signs is evaluated about 7 days after inoculation. The tips and bases of the leaves are excluded from the evaluation. Percent disease control is then calculated by the following formula: % disease control = 100 -(% infection in treated plants)/(% infection in untreated plants)x 100 [formula]
(§1) • 1. Technical compounds are formulated in a solvent/surfactant system consisting of […] acetone and 0.05% Tween 20 in deionized water. Compounds are dissolved in acetone prior to addition of the water; the Tween 20 can be added through either the acetone or the water. Dilutions are made using the solvent/surfactant system. Test compounds are typically tested over a range of concentrations covering several orders of magnitude and then ED values are calculated for comparison of compounds. Formulated compounds are prepared using deionized water. • 2. Two kinds of controls are included: • Plants treated with the solvent/surfactant solution and inoculated (Solvent Blank). • Untreated plants which are inoculated (Inoculated Control).
Compounds applied as technical material formulated in 0.5% acetone 0.05% Tween 20 water

[2] = system: Erysiphe cichoracearum DC; assay: Curative and residual control test, Cucumber Powdery Mildew (QPM); assay type: in vivo; settings: Golovinomyces cichoracearum, 72 h, read-out: Disease control (% efficacy); for Emax at 12.5 ppm: QPM 3 da R (3 day residual), 12,5 ppm; for Emax at 125 ppm / Emax at 1250 ppm: QPM 3 da R (3 day residual)
From the text: • (a) Wheat Powdery Mildew (WPM): HOST: Wheat (Triticum aestivum L.) variety Kanzler PATHOGEN: Blumeria (Erysiphe) graminis DC. f.sp. tritici E. Marchal • (b) Cucumber Powdery Mildew (QPM): HOST: Cucumber (Cucumis sativus L.) variety Bush pickle PATHOGEN: Erysiphe cichoracearum DC
This test procedure is for curative and residual control of powdery mildew diseases. • 1. Wheat seed (approximately 8-10/pot) or cucumber seed (1 seed / pot) is planted in 6 cm diameter plastic pots and maintained in the greenhouse. • 2. When the primary leaf (wheat) or the cotyledons (cucumber) is/are fully expanded, formulated test compounds are sprayed with a single nozzle overhead track sprayer at a rate of 200 l/ha. Plants are then allowed to air-dry. • 3. Inoculation precedes treatment by 2 or 3 days in the case of curative evaluations and follows treatment by 3 or 4 days in case of residual evaluations. For inoculation, plants are set up on greenhouse benches with bottom watering mats and inoculated by dusting them with conidia from powdery mildew infected plants (stock cultures at an age of 10-14 days). Between inoculation and treatment for curative evaluations and between treatment and inoculation for residual evaluations, plants are maintained in the greenhouse with bottom watering. • 4. Disease on the primary leaf (wheat) or on the cotyledons (cucumber) as percent leaf area with disease symptoms/signs is evaluated about 7 days after inoculation. In the case of wheat, the tips and bases of the leaves are excluded from the evaluation. Percent disease control is then calculated by the following formula: % disease control = 100 -(% infection in treated plants)/(% infection in untreated plants)x 100 [formula]
as §1, with “system.” for “system. Test compounds are typically tested over a range of concentrations covering several orders of magnitude and then ED values are calculated for comparison of compounds.”

How did the “ED90 (ppm)” value [1] turn out when `COc1cc(C)c(C(=O)c2c(C)cccc2OC)c(OC)c1OC` [Example 1, 6,6'-dimethyl-2,2',3',4'-tetramethoxy-benzophenone] was run?
Its value is 4 ppm.

What about the Emax at 12.5 ppm ([2]; Test A) of the same molecule?
The Emax at 12.5 ppm was 2%.

What about the Emax at 12.5 ppm ([2]; Test B) of the same molecule?
The Emax at 12.5 ppm was 3%.

What about the Emax at 125 ppm ([2]; Test A) of the same molecule?
The Emax at 125 ppm was 5%.

And the Emax at 125 ppm ([2]; Test B)?
Its Emax at 125 ppm is 61%.

And the Emax at 1250 ppm ([2]; Test A)?
The Emax at 1250 ppm was 100%.

And the Emax at 1250 ppm ([2]; Test B)?
Its Emax at 1250 ppm is 100%.
